SMILES strings stand for the structures.

This test relates to MV-4-11 cells. In words: Gene expression microarray analysis (Affymetrix PrimeView) and GSEA. Type of test: cell-based, human. More on the design: RFU PODN (11730768_x_at) / Fold change /veh PODN (11730768_x_at) / RFU LINC00158 (11744669_a_at) / Fold change /veh LINC00158 (11744669_a_at) / RFU DUSP10 (11751237_a_at) / Fold change /veh DUSP10 (11751237_a_at) / RFU ID3 (11757404_x_at) / Fold change /veh ID3 (11757404_x_at) / RFU PLEKHG5 (11737974_s_at) / Fold change /veh PLEKHG5 (11737974_s_at) / RFU LRRC4B (11730491_at) / Fold change /veh LRRC4B (11730491_at) / RFU GIMAP4 (11747438_a_at) / Fold change /veh GIMAP4 (11747438_a_at) / RFU KRT8 (11758183_x_at) / Fold change /veh KRT8 (11758183_x_at) / RFU CNN1 (11734310_a_at) / Fold change /veh CNN1 (11734310_a_at) / RFU VPS37D (11726825_at) / Fold change /veh VPS37D (11726825_at) / RFU C10orf10 (11716522_x_at) / Fold change /veh C10orf10 (11716522_x_at) / RFU KIR2DL2 /// KIR2DL4 /// KIR2DL5A /// KIR2DL5B /// KIR2DS1 /// KIR2DS2 /// KIR2DS3 /// KIR2DS4 /// KIR3DL3 /// KIR3DL3 /// KIR3DS1 (11738374_at) / Fold change /veh KIR2DL2 /// KIR2DL4 /// KIR2DL5A /// KIR2DL5B /// KIR2DS1 /// KIR2DS2 /// KIR2DS3 /// KIR2DS4 /// KIR3DL3 /// KIR3DL3 /// KIR3DS1 (11738374_at) / RFU C1QL1 (11718748_at) / Fold change /veh C1QL1 (11718748_at) / RFU TMPRSS4 (11747572_a_at) / Fold change /veh TMPRSS4 (11747572_a_at) / RFU HAMP (11756126_x_at) / Fold change /veh HAMP (11756126_x_at) / RFU RNFT2 (11725882_a_at) / Fold change /veh RNFT2 (11725882_a_at) / RFU NR4A2 (11747474_a_at) / Fold change /veh NR4A2 (11747474_a_at) / RFU ABCC12 (11746883_a_at) / Fold change /veh ABCC12 (11746883_a_at) / RFU TMEM136 (11760407_x_at) / Fold change /veh TMEM136 (11760407_x_at) / RFU CLDN22 /// WWC2 (11732394_at) / Fold change /veh CLDN22 /// WWC2 (11732394_at) / RFU HLA-DPB1 (11760878_x_at) / Fold change /veh HLA-DPB1 (11760878_x_at) / RFU SPINT1 (11716480_a_at) / Fold change /veh SPINT1 (11716480_a_at) / RFU GAP43 (11754022_s_at) / Fold change /veh GAP43 (11754022_s_at) / RFU A4GNT (11735810_at) / Fold change /veh A4GNT (11735810_at) / RFU PRB3 (11715151_x_at) / Fold change /veh PRB3 (11715151_x_at) / RFU TUBB4B (11761932_at) / Fold change /veh TUBB4B (11761932_at) / RFU CAPN14 (11732068_a_at) / Fold change /veh CAPN14 (11732068_a_at) / RFU TMCC2 (11721928_a_at) / Fold change /veh TMCC2 (11721928_a_at) / RFU IRGQ (11745062_a_at) / Fold change /veh IRGQ (11745062_a_at) / RFU FAM174B (11720279_a_at) / Fold change /veh FAM174B (11720279_a_at) / RFU TMPRSS4 (11748680_a_at) / Fold change /veh TMPRSS4 (11748680_a_at) / RFU FAM212B (11763350_a_at) / Fold change /veh FAM212B (11763350_a_at) / RFU PLEKHG5 (11743358_a_at) / Fold change /veh PLEKHG5 (11743358_a_at) / RFU ZSCAN30 (11745921_a_at) / Fold change /veh ZSCAN30 (11745921_a_at) / RFU CMKLR1 (11741424_a_at) / Fold change /veh CMKLR1 (11741424_a_at) / RFU LOC101060620 /// MAPK8IP1 (11723275_at) / Fold change /veh LOC101060620 /// MAPK8IP1 (11723275_at) / RFU SPTSSB (11747773_x_at) / Fold change /veh SPTSSB (11747773_x_at) / RFU PRSS12 (11739890_at) / Fold change /veh PRSS12 (11739890_at) / RFU BIN1 (11741810_x_at) / Fold change /veh BIN1 (11741810_x_at) / RFU WNT11 (11732464_a_at) / Fold change /veh WNT11 (11732464_a_at) / RFU C10orf10 (11716521_a_at) / Fold change /veh C10orf10 (11716521_a_at) / RFU C5orf56 (11738089_at) / Fold change /veh C5orf56 (11738089_at) / RFU CYB561 (11721691_x_at) / Fold change /veh CYB561 (11721691_x_at) / RFU ANKRD19P (11752326_a_at) / Fold change /veh ANKRD19P (11752326_a_at) / RFU OR2T12 /// OR2T33 /// OR2T8 (11738714_s_at) / Fold change /veh OR2T12 /// OR2T33 /// OR2T8 (11738714_s_at) / RFU VCAN (11748164_a_at) / Fold change /veh VCAN (11748164_a_at) / RFU JSRP1 (11732532_at) / Fold change /veh JSRP1 (11732532_at) / RFU KRTAP10-11 (11738290_x_at) / Fold change /veh KRTAP10-11 (11738290_x_at) / RFU MYO3A (11730013_a_at) / Fold change /veh MYO3A (11730013_a_at) / RFU EBF3 (11725865_a_at) / Fold change /veh EBF3 (11725865_a_at) / RFU CAMK2N1 (11719241_x_at) / Fold change /veh CAMK2N1 (11719241_x_at) / RFU C5orf56 (11738088_a_at) / Fold change /veh C5orf56 (11738088_a_at) / RFU OLFML3 (11715873_a_at) / Fold change /veh OLFML3 (11715873_a_at) / RFU LOC100653217 /// NTM (11731650_a_at) / Fold change /veh LOC100653217 /// NTM (11731650_a_at) / RFU MAPK11 (11762145_a_at) / Fold change /veh MAPK11 (11762145_a_at) / RFU FIZ1 (11724087_x_at) / Fold change /veh FIZ1 (11724087_x_at) / RFU OASL (11726364_x_at) / Fold change /veh OASL (11726364_x_at) / RFU SOX15 (11748057_x_at) / Fold change /veh SOX15 (11748057_x_at) / RFU CD79A (11719716_a_at) / Fold change /veh CD79A (11719716_a_at) / RFU HIST1H1D (11736915_at) / Fold change /veh HIST1H1D (11736915_at) / RFU CASKIN2 (11723855_a_at) / Fold change /veh CASKIN2 (11723855_a_at) / RFU LOC730098 (11760151_x_at) / Fold change /veh LOC730098 (11760151_x_at) / RFU OR4N2 (11742367_at) / Fold change /veh OR4N2 (11742367_at) / RFU PRRT2 (11749266_a_at) / Fold change /veh PRRT2 (11749266_a_at) / RFU SNX32 (11753110_a_at) / Fold change /veh SNX32 (11753110_a_at) / RFU CDHR5 (11726645_a_at) / Fold change /veh CDHR5 (11726645_a_at) / RFU RCAN1 (11760418_a_at) / Fold change /veh RCAN1 (11760418_a_at) / RFU FAM167A (11723789_a_at) / Fold change /veh FAM167A (11723789_a_at) / RFU FAM26E (11764081_at) / Fold change /veh FAM26E (11764081_at) / RFU ISYNA1 (11749810_s_at) / Fold change /veh ISYNA1 (11749810_s_at) / RFU ACY1 (11761880_at) / Fold change /veh ACY1 (11761880_at) / RFU 11764098_at / Fold change /veh 11764098_at / RFU SAMD14 (11745864_x_at) / Fold change /veh SAMD14 (11745864_x_at) / RFU NPB (11741838_a_at) / Fold change /veh NPB (11741838_a_at) / RFU TMPRSS6 (11731388_a_at) / Fold change /veh TMPRSS6 (11731388_a_at) / RFU KRTAP10-2 (11738614_at) / Fold change /veh KRTAP10-2 (11738614_at) / RFU ARHGAP8 /// PRR5-ARHGAP8 (11727945_x_at) / Fold change /veh ARHGAP8 /// PRR5-ARHGAP8 (11727945_x_at) / RFU KRTAP5-7 /// NADSYN1 (11734609_at) / Fold change /veh KRTAP5-7 /// NADSYN1 (11734609_at) / RFU RASL12 (11751679_a_at) / Fold change /veh RASL12 (11751679_a_at) / RFU CDKN2B (11736163_a_at) / Fold change /veh CDKN2B (11736163_a_at) / RFU PRF1 (11729649_at) / Fold change /veh PRF1 (11729649_at) / RFU, ZNF638 /// ZNF638-IT1 / Fold change vs veh, ZNF638 /// ZNF638-IT1 / RFU, PANK3 / Fold change vs veh, PANK3 / RFU, SH3YL1 / Fold change vs veh, SH3YL1 / RFU, ZEB2 / Fold change vs veh, ZEB2 / RFU, NRIP1 / Fold change vs veh, NRIP1 / RFU, PTTG1IP / Fold change vs veh, PTTG1IP / RFU, CAPN2 / Fold change vs veh, CAPN2 / RFU, MED14 / Fold change vs veh, MED14 / RFU, SNORA58 / Fold change vs veh, SNORA58 / RFU, C1orf63 / Fold change vs veh, C1orf63 / RFU, LRRFIP1 / Fold change vs veh, LRRFIP1 / RFU, NDUFAF7 / Fold change vs veh, NDUFAF7 / RFU, SLC12A2 / Fold change vs veh, SLC12A2 / RFU, IBTK / Fold change vs veh, IBTK / RFU, ESF1 / Fold change vs veh, ESF1 / Fold change vs veh, TMEM50B / RFU, TAOK1 / Fold change vs veh, TAOK1 / RFU, ACBD3 / Fold change vs veh, ACBD3 / RFU, TMA16 / Fold change vs veh, TMA16 / RFU, RWDD3 / Fold change vs veh, RWDD3 / RFU, BCAT1 / Fold change vs veh, BCAT1 / RFU, EDEM3 / Fold change vs veh, EDEM3 / RFU, TMEM33 / Fold change vs veh, TMEM33 / RFU, WDR75 / Fold change vs veh, WDR75 / RFU, AHCTF1 / Fold change vs veh, AHCTF1 / RFU, TFRC / Fold change vs veh, TFRC / RFU, ZDHHC17 / Fold change vs veh, ZDHHC17 / RFU, NOM1 / Fold change vs veh, NOM1 / RFU, ARL8B / Fold change vs veh, ARL8B / RFU, ZBTB11 / Fold change vs veh, ZBTB11 / RFU, TAMM41 / Fold change vs veh, TAMM41 / RFU, KIAA1704 /// LOC100996395 / Fold change vs veh, KIAA1704 /// LOC100996395 / RFU, ING1 / Fold change vs veh, ING1 / RFU, TRMT61B / Fold change vs veh, TRMT61B / RFU, FUBP3 / Fold change vs veh, FUBP3 / RFU, TP53 / Fold change vs veh, TP53 / RFU, TNKS2 / Fold change vs veh, TNKS2 / RFU, ZFP14 / Fold change vs veh, ZFP14 / RFU, ACTR2 / Fold change vs veh, ACTR2 / RFU, PPP3R1 / Fold change vs veh, PPP3R1 / RFU, PIK3R1 / Fold change vs veh, PIK3R1 / RFU, HNRNPA1 / Fold change vs veh, HNRNPA1 / RFU, RNF170 / Fold change vs veh, RNF170 / RFU, ZNF28 / Fold change vs veh, ZNF28 / RFU, RNGTT / Fold change vs veh, RNGTT / RFU, OGT / Fold change vs veh, OGT / RFU, BRD1 / Fold change vs veh, BRD1 / RFU, MARS / Fold change vs veh, MARS / RFU, ZNF655 / Fold change vs veh, ZNF655 / RFU, FAHD1 / Fold change vs veh, FAHD1 / RFU, BDP1 / Fold change vs veh, BDP1 / RFU, LRRCC1 / Fold change vs veh, LRRCC1 / RFU, ARID1A / Fold change vs veh, ARID1A / RFU, ZNF146 / Fold change vs veh, ZNF146 / RFU, ZNF330 / Fold change vs veh, ZNF330 / RFU, GPN3 / Fold change vs veh, GPN3 / RFU, C9orf123 / Fold change vs veh, C9orf123 / RFU, N4BP2L2 / Fold change vs veh, N4BP2L2 / RFU, ARFIP1 / Fold change vs veh, ARFIP1 / RFU, FAM179B / Fold change vs veh, FAM179B / RFU, BCL10 / Fold change vs veh, BCL10 / RFU, UHRF1BP1L / Fold change vs veh, UHRF1BP1L / RFU, BET1 / Fold change vs veh, BET1 / RFU, CNOT2 / Fold change vs veh, CNOT2 / RFU, ZNF268 / Fold change vs veh, ZNF268 / Fold change vs veh, ZNF507 / RFU, DGCR2 / Fold change vs veh, DGCR2 / RFU, WDSUB1 / Fold change vs veh, WDSUB1 / Fold change vs veh, HSP90B1 /// MIR3652 / RFU, ADSS / Fold change vs veh, ADSS / RFU, GK / Fold change vs veh, GK / RFU, ZNF148 / Fold change vs veh, ZNF148 / RFU, TAF9 / Fold change vs veh, TAF9 / RFU, SLC1A5 / Fold change vs veh, SLC1A5 / RFU, SLMO2 / Fold change vs veh, SLMO2 / RFU, ABCC4 / Fold change vs veh, ABCC4 / RFU, LOC101060439 /// RAP1B / Fold change vs veh, LOC101060439 /// RAP1B / RFU, RFX7 / Fold change vs veh, RFX7 / RFU, GTPBP10 / Fold change vs veh, GTPBP10 / RFU, CNEP1R1 / Fold change vs veh, CNEP1R1 / RFU, BIVM-ERCC5 /// ERCC5 / Fold change vs veh, BIVM-ERCC5 /// ERCC5 / RFU, ILF3 / Fold change vs veh, ILF3 / RFU 11762660_at / Fold change /veh 11762660_at / RFU VCAN (11757783_s_at) / Fold change /veh VCAN (11757783_s_at) / RFU DDX43 (11728927_at) / Fold change /veh DDX43 (11728927_at) / RFU KRT8 (11758188_x_at) / Fold change /veh KRT8 (11758188_x_at) / RFU NKD1 (11759106_at) / Fold change /veh NKD1 (11759106_at) / RFU SRD5A1 (11742802_a_at) / Fold change /veh SRD5A1 (11742802_a_at) / RFU TPSAB1 /// TPSB2 (11721975_s_at) / Fold change /veh TPSAB1 /// TPSB2 (11721975_s_at) / RFU GSTM3 (11746129_a_at) / Fold change /veh GSTM3 (11746129_a_at) / RFU IL23R (11737362_x_at) / Fold change /veh IL23R (11737362_x_at) / RFU TMEM51 (11727254_a_at) / Fold change /veh TMEM51 (11727254_a_at) / RFU PIWIL2 (11732686_x_at) / Fold change /veh PIWIL2 (11732686_x_at) / RFU ORM1 (11744905_x_at) / Fold change /veh ORM1 (11744905_x_at) / RFU CCDC152 (11743942_at) / Fold change /veh CCDC152 (11743942_at) / RFU ECM1 (11717891_a_at) / Fold change /veh ECM1 (11717891_a_at) / RFU IL23R (11748794_a_at) / Fold change /veh IL23R (11748794_a_at) / RFU TNFAIP8L3 (11732012_x_at) / Fold change /veh TNFAIP8L3 (11732012_x_at) / RFU MBOAT4 (11741988_at) / Fold change /veh MBOAT4 (11741988_at) / RFU 11764193_at / Fold change /veh 11764193_at / RFU TMEM53 (11763286_at) / Fold change /veh TMEM53 (11763286_at) / RFU MAGEB2 (11727129_at) / Fold change /veh MAGEB2 (11727129_at) / RFU TMEM200A (11744735_a_at) / Fold change /veh TMEM200A (11744735_a_at) / RFU CCDC152 (11751479_a_at) / Fold change /veh CCDC152 (11751479_a_at) / RFU FAM211A (11726209_a_at) / Fold change /veh FAM211A (11726209_a_at) / RFU RGS16 (11746705_a_at) / Fold change /veh RGS16 (11746705_a_at) / RFU VCAN (11755009_s_at) / Fold change /veh VCAN (11755009_s_at) / RFU RHOB (11743442_s_at) / Fold change /veh RHOB (11743442_s_at) / RFU RGS16 (11720943_a_at) / Fold change /veh RGS16 (11720943_a_at) / RFU RGS16 (11720944_at) / Fold change /veh RGS16 (11720944_at) / RFU, VPS4B / Fold change vs veh, VPS4B / RFU, CREB1 / Fold change vs veh, CREB1 / RFU, DNAJC13 / Fold change vs veh, DNAJC13 / RFU, GNAQ / Fold change vs veh, GNAQ / RFU, CDK5R1 / Fold change vs veh, CDK5R1 / RFU, ZRANB3 / Fold change vs veh, ZRANB3 / RFU, CUL4A / Fold change vs veh, CUL4A / RFU, CCNY / Fold change vs veh, CCNY / RFU, UFL1 / Fold change vs veh, UFL1 / RFU, COG3 / Fold change vs veh, COG3 / RFU, DIAPH2 / Fold change vs veh, DIAPH2 / RFU, SKA2 / Fold change vs veh, SKA2 / RFU, AFF3 / Fold change vs veh, AFF3 / RFU, LMF1 / Fold change vs veh, LMF1 / RFU, IPO11 / Fold change vs veh, IPO11 / RFU, DFFB / Fold change vs veh, DFFB / RFU, FOXP1 / Fold change vs veh, FOXP1 / RFU, CARD8 / Fold change vs veh, CARD8 / RFU, STRN3 / Fold change vs veh, STRN3 / RFU, ADK / Fold change vs veh, ADK / RFU, RASSF2 / Fold change vs veh, RASSF2 / RFU, WIPF1 / Fold change vs veh, WIPF1 / RFU, LARP1B / Fold change vs veh, LARP1B / RFU, RASA1 / Fold change vs veh, RASA1 / RFU, RB1 / Fold change vs veh, RB1 / RFU, PPFIA1 / Fold change vs veh, PPFIA1 / RFU, MAT2A / Fold change vs veh, MAT2A / RFU, CCT5 / Fold change vs veh, CCT5 / RFU, WDR92 / Fold change vs veh, WDR92 / RFU, CUX1 / Fold change vs veh, CUX1 / RFU, TTC7A / Fold change vs veh, TTC7A / RFU, TMEM135 / Fold change vs veh, TMEM135 / RFU, DEPTOR / Fold change vs veh, DEPTOR / RFU, CPM / Fold change vs veh, CPM / RFU, DNAJB6 / Fold change vs veh, DNAJB6 / RFU, CACNA2D3 / Fold change vs veh, CACNA2D3 / RFU, DTX4 / Fold change vs veh, DTX4 / RFU, TFCP2 / Fold change vs veh, TFCP2 / RFU, GMCL1 /// GMCL1P1 / Fold change vs veh, GMCL1 /// GMCL1P1 / RFU, AEBP2 / Fold change vs veh, AEBP2 / RFU, SNHG1 /// SNORD22 /// SNORD25 /// SNORD26 /// SNORD27 /// SNORD28 /// SNORD29 /// SNORD31 / Fold change vs veh, SNHG1 /// SNORD22 /// SNORD25 /// SNORD26 /// SNORD27 /// SNORD28 /// SNORD29 /// SNORD31 / Fold change (Aza/veh), C12orf56 (ProbeSet 11735607_a_at) / Fold change (ACY-1035/veh), C12orf56 (ProbeSet 11735607_a_at) / Fold change (Aza/veh), FGFR1OP (ProbeSet 11751329_s_at) / Fold change (ACY-1035/veh), FGFR1OP (ProbeSet 11751329_s_at) / Fold change (Aza/veh), VPS36 (ProbeSet 11739960_a_at) / Fold change (ACY-1035/veh), VPS36 (ProbeSet 11739960_a_at) / RFU SYPL1 (11715823_x_at) / Fold change /veh SYPL1 (11715823_x_at) / RFU IGFBP7 (11715501_s_at) / Fold change /veh IGFBP7 (11715501_s_at) / RFU REEP3 (11722064_at) / Fold change /veh REEP3 (11722064_at) / RFU IGLL1 (11728026_x_at) / Fold change /veh IGLL1 (11728026_x_at): dose or concentration left out as unconfirmed. To be noted: MV-4-11 cells, 48 hours.

Consider `Nc1ncn([C@@H]2O[C@H](CO)[C@@H](O)[C@H]2O)c(=O)n1` [azacitidine], for which the “Fold change /veh SNX32 (11753110_a_at)” value was 1.11.

These data come from paper PMC5218480 (PLoS ONE, 2017).
